Literature values in patent US12005095B2, “Eutectic extraction solvents, extraction methods by eutectigenesis using said solvents, and extracts derived from said extraction methods” (Givaudan France Naturals SAS, priority 2015, dated 2024).

Tested on: cellular melanogenesis

Structure (SMILES): O=C1c2c(O)cc(O)cc2O[C@H](c2ccc(O)c(O)c2)[C@H]1O [taxifolin]
- effect on cellular melanogenesis, in words: inhibit cellular melanogenesis
